Test systems include MDA-MB-435; CAKI-1; T47D; U-251; UACC-257; HCT-116; HCT-15; UACC-62; M14; A498; MDA-N; NCI-H226; K562; IGROV-1; CCRF-CEM; DU-145; OVCAR-8; SNB-19; MDA-MB-231.
What all share (test): DTP human tumour cell line panel, 48 h

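Each compound was tested at five concentrations against cells in 96-well plates for 48 hours. GI50 marks 50% less growth.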 Calls of active or inactive are those of the source. Rule as the data show it: active = GI50 up to about 1.1 µM and inactive = higher.

What is called GI50 is the concentration giving 50% growth inhibition.

With `C(=N\c1ccc(-c2nc3ccccc3s2)cc1)/c1ccco1`, the GI50 in the assay with MDA-MB-435 was 64.3 µM (inactive); in the assay with CAKI-1, 49.1 µM (inactive); with T47D it was 41.6 µM (inactive); in the assay on U-251, 47.6 µM (inactive); in the assay with UACC-257 it was 43.8 µM (inactive); in the assay with HCT-116, 82 µM (inactive). For the same compound, the GI50 in the assay with HCT-15 is 51.2 µM; with UACC-62 it was 54.2 µM (inactive); in the assay on M14 it was 93.5 µM (inactive); in the assay on A498, 27 µM (inactive); with MDA-N it was 72.9 µM (inactive); in the assay on NCI-H226, 56.4 µM (inactive). Also, the GI50 was 41.3 µM (inactive) in the assay on K562; 58.1 µM (inactive) in the assay with IGROV-1; 37.6 µM (inactive) with CCRF-CEM; > 100 µM (inactive) in the assay on DU-145; 64.9 µM (inactive) in the assay on OVCAR-8; > 100 µM (inactive) with SNB-19.

Consider `Cn1c(N/N=C/c2ccccc2)nc(-c2ccc3c(c2)OCO3)c(C#N)c1=O`, for which the GI50 was 73.8 µM (inactive) with MDA-MB-435; 14 µM (inactive) in the assay on MDA-MB-231; 99.3 µM (inactive) with CAKI-1; > 100 µM (inactive) in the assay on T47D; > 100 µM (inactive) with U-251; 77.1 µM (inactive) in the assay on UACC-257. Moreover, the GI50 in the assay on HCT-116 was > 100 µM (inactive); with HCT-15 it was 36.5 µM; in the assay with UACC-62 it was 40.3 µM (inactive); in the assay with M14, > 100 µM (inactive); in the assay with A498, 95.9 µM (inactive); in the assay with MDA-N it was > 100 µM (inactive). Besides, the GI50 with K562 was 87.3 µM (inactive); with IGROV-1, 20.9 µM (inactive); with CCRF-CEM it was 94 µM (inactive); with DU-145, 84.5 µM (inactive); in the assay on OVCAR-8 it was 22.8 µM (inactive); in the assay with SNB-19, > 100 µM (inactive).

As for `Cc1cn(S(=O)(=O)c2ccccc2)c2c(OCc3ccccc3)cc([N+](=O)[O-])cc12`, the GI50 is 3.92 µM (inactive) in the assay on MDA-MB-435; 80.9 µM (inactive) in the assay with MDA-MB-231; > 100 µM (inactive) in the assay with CAKI-1; 29.2 µM (inactive) in the assay with T47D; 31 µM (inactive) in the assay with U-251; > 100 µM (inactive) in the assay with UACC-257. For the same compound, the GI50 in the assay with HCT-116 is > 100 µM (inactive); in the assay with HCT-15 it was more than 100 µM; with UACC-62 it was 21.3 µM (inactive); with M14 it was > 100 µM (inactive); with A498 it was 30.6 µM (inactive); in the assay on NCI-H226, 58.7 µM (inactive). In addition, the GI50 in the assay on K562 was > 100 µM (inactive); in the assay on IGROV-1 it was 71 µM (inactive); with CCRF-CEM it was > 100 µM (inactive); in the assay on DU-145 it was > 100 µM (inactive); with OVCAR-8 it was > 100 µM (inactive); with SNB-19 it was 56.4 µM (inactive).

For `Nc1nc(=O)c(/N=N/c2ccccc2)c(C(=O)O)[nH]1`, the GI50 in the assay with MDA-MB-435 was > 100 µM (inactive); in the assay with MDA-MB-231, > 100 µM (inactive); in the assay on CAKI-1, > 100 µM (inactive); with U-251, 56.9 µM (inactive); in the assay with UACC-257, 62.8 µM (inactive); in the assay on HCT-116, 61.8 µM (inactive). In addition, the GI50 in the assay with HCT-15 is 75.2 µM; in the assay on UACC-62 it was > 100 µM (inactive); with M14, > 100 µM (inactive); in the assay with A498 it was > 100 µM (inactive); in the assay on MDA-N it was > 100 µM (inactive); in the assay with NCI-H226, > 100 µM (inactive). For the same compound, the GI50 with K562 was 54.6 µM (inactive); in the assay on IGROV-1, 85.7 µM (inactive); in the assay on CCRF-CEM, 40.1 µM (inactive); in the assay on DU-145, 98.6 µM (inactive); with OVCAR-8, > 100 µM (inactive); in the assay on SNB-19, > 100 µM (inactive).

As for `COC1(c2ccccc2)N=C(S)NN=C1c1ccccc1` (centres undefined), the GI50 in the assay on MDA-MB-435 is 19.5 µM (inactive); with MDA-MB-231 it was 27.5 µM (inactive); in the assay with CAKI-1 it was 73.8 µM (inactive); in the assay on T47D, 33.5 µM (inactive); with U-251, 21.2 µM (inactive); in the assay with UACC-257, 49.1 µM (inactive). Also, the GI50 in the assay on HCT-116 is 35.5 µM (inactive); with HCT-15 it was 24.3 µM; in the assay on UACC-62, 51.4 µM (inactive); in the assay with M14, 27.5 µM (inactive); in the assay on A498, > 100 µM (inactive); in the assay on MDA-N it was 21.5 µM (inactive). Besides, the GI50 in the assay with K562 was 33.4 µM (inactive); in the assay on IGROV-1, 34.8 µM (inactive); with CCRF-CEM, 28.2 µM (inactive); with DU-145, 32.8 µM (inactive); in the assay on OVCAR-8, 29.3 µM (inactive); in the assay with SNB-19, 54.2 µM (inactive).

On to `[N-]=[N+]=NC1C(O)C(CO)OC1n1ccc(N)nc1=O` (centres undefined), for which the GI50 in the assay on MDA-MB-435 is 44.3 µM (inactive); in the assay on MDA-MB-231 it was 195 µM (inactive); with CAKI-1, 185 µM (inactive); in the assay on U-251, 195 µM (inactive); with UACC-257, 369 µM (inactive); in the assay on HCT-116, > 172 µM (inactive). Besides, the GI50 in the assay on HCT-15 was 56.2 µM; in the assay with UACC-62, 147 µM (inactive); in the assay with M14, 26.1 µM (inactive); in the assay with A498, 91.8 µM (inactive); in the assay on MDA-N it was 93.1 µM (inactive); in the assay on NCI-H226 it was > 625 µM (inactive). Further, the GI50 is 294 µM (inactive) with K562; 310 µM (inactive) in the assay with IGROV-1; 0.444 µM (active) with CCRF-CEM; 212 µM (inactive) in the assay with DU-145; 55.5 µM (inactive) in the assay on OVCAR-8; 18.2 µM (inactive) with SNB-19.

Turning to `O=C(NC12CC3CC(CC(C3)C1)C2)n1cnc2c(Cl)ncnc21`, the GI50 in the assay on MDA-MB-435 was 19.1 µM (inactive); in the assay with MDA-MB-231, 42.8 µM (inactive); in the assay on CAKI-1, > 100 µM (inactive); with T47D it was > 100 µM (inactive); in the assay on U-251, 27.2 µM (inactive); with UACC-257 it was 35.8 µM (inactive). In addition, the GI50 is 37.8 µM (inactive) with HCT-116; 35 µM with HCT-15; 81.1 µM (inactive) in the assay on UACC-62; 23.1 µM (inactive) in the assay with M14; > 100 µM (inactive) in the assay with A498; 21.6 µM (inactive) in the assay with MDA-N. Also, the GI50 in the assay on K562 was 25.8 µM (inactive); in the assay on IGROV-1, 18.5 µM (inactive); in the assay on CCRF-CEM it was 7.71 µM (inactive); in the assay with DU-145, 24.3 µM (inactive); with OVCAR-8, 26 µM (inactive); in the assay on SNB-19 it was > 100 µM (inactive).

Consider `CC(C)(C)C1=C(Br)C(O)(C(C)(C)C)OP1(=O)c1ccccc1` (centres undefined), for which the GI50 with MDA-MB-435, in the assay with MDA-MB-231, in the assay with CAKI-1, with T47D, in the assay with U-251 and in the assay with UACC-257 was > 100 µM (inactive) each time. For the same compound, the GI50 with HCT-15 is more than 100 µM; in the assay on UACC-62, > 100 µM (inactive); in the assay with A498, > 100 µM (inactive); in the assay with MDA-N, > 100 µM (inactive); with K562 it was > 100 µM (inactive); in the assay with IGROV-1, > 100 µM (inactive). Also, the GI50 with CCRF-CEM, with DU-145, in the assay on OVCAR-8 and with SNB-19 was > 100 µM (inactive) each time.

`COC(=O)C1(C(=O)OC)Cc2ccc(C)cc2C2=C1C(=O)c1ccccc1C2=O`: the GI50 in the assay with MDA-MB-435 was 15.6 µM (inactive); in the assay on MDA-MB-231, 16.7 µM (inactive); with T47D, 7.71 µM (inactive); in the assay with UACC-257 it was 16.5 µM (inactive); in the assay with HCT-116, 18.2 µM (inactive); in the assay on HCT-15, 12.6 µM. In addition, the GI50 was 13.8 µM (inactive) in the assay with UACC-62; > 10 µM (inactive) with M14; 16.5 µM (inactive) in the assay on MDA-N; > 100 µM (inactive) with NCI-H226; 18.2 µM (inactive) with K562; 19.4 µM (inactive) with IGROV-1. In addition, the GI50 was 15.2 µM (inactive) with CCRF-CEM, 20.2 µM (inactive) with DU-145, 13.3 µM (inactive) in the assay with OVCAR-8 and 58.6 µM (inactive) in the assay on SNB-19.

Consider `CCOC(=O)c1c(NC(=O)c2ccccc2)sc2c1CCC2`, for which the GI50 in the assay with MDA-MB-231 was > 100 µM (inactive); in the assay on CAKI-1 it was > 100 µM (inactive); in the assay with T47D, > 100 µM (inactive); with UACC-257 it was > 100 µM (inactive); in the assay on HCT-116 it was > 100 µM (inactive); in the assay with HCT-15, more than 100 µM. Further, the GI50 with UACC-62, with M14, in the assay with A498, in the assay on MDA-N, in the assay with NCI-H226 and with K562 was > 100 µM (inactive) throughout. Also, the GI50 with IGROV-1, in the assay with CCRF-CEM, in the assay on DU-145, in the assay with OVCAR-8 and with SNB-19 was > 100 µM (inactive) throughout.

With `O=C1CS(=O)(=O)C(c2cccc(Oc3ccccc3)c2)N1c1cccc(Cl)c1Cl` (centres undefined), the GI50 was 19.7 µM (inactive) in the assay with MDA-MB-435; 23.8 µM (inactive) in the assay with MDA-MB-231; 31.3 µM (inactive) in the assay with CAKI-1; 26.2 µM (inactive) in the assay on T47D; 20 µM (inactive) with U-251; 21 µM (inactive) in the assay on UACC-257. The GI50 was 22.4 µM (inactive) in the assay on HCT-116; 13.5 µM (inactive) with UACC-62; 39.1 µM (inactive) in the assay on M14; 19.6 µM (inactive) with MDA-N; 35.7 µM (inactive) in the assay with NCI-H226; 16.6 µM (inactive) in the assay on K562. The GI50 was 10.7 µM (inactive) with CCRF-CEM, 42.6 µM (inactive) in the assay with DU-145, 19.1 µM (inactive) with OVCAR-8 and 39.5 µM (inactive) in the assay with SNB-19.

Consider `C[N+]1(C)CC[N+](C)(C)[BH-]1C(O)O`, for which the GI50 in the assay on MDA-MB-435, in the assay with MDA-MB-231, in the assay on CAKI-1, in the assay with T47D, in the assay with U-251 and in the assay on UACC-257 was > 100 µM (inactive) throughout. For the same compound, the GI50 with HCT-116 is > 100 µM (inactive); in the assay with HCT-15, more than 100 µM; in the assay on UACC-62 it was > 100 µM (inactive); in the assay with M14, > 100 µM (inactive); with A498 it was > 100 µM (inactive); with MDA-N, > 100 µM (inactive). Moreover, the GI50 with K562, in the assay with IGROV-1, in the assay on CCRF-CEM, in the assay on DU-145, with OVCAR-8 and in the assay with SNB-19 was > 100 µM (inactive) throughout.
